Tests used:
[1] = tested on: stress granule formation in WT cell line with endogenous G3BP1; experiment: Stress granule formation in WT cell line with endogenous G3BP1 (immunofluorescence); assay type: cell-based; settings: Figure S2H: 50 μM, 250 μM NaAsO2 for 30 min
Method: U2OS cells or U2OS cells stably expressing G3BP1-GFP were seeded in four-well Lab-Tek II Chambered Coverglass (1055360; Thermo Fisher Scientific). For preincubation experiments, cells were treated with 50 μM G3I compound for 20 min or 24 h, followed by 250 μM NaAsO2 and 50 μM G3I compound for 30 min. For posttreatment, cells were treated with 250 μM NaAsO2 for 30 min, followed by treatment with 250 μM NaAsO2 and 50 μM G3I compound for 5 min. Cells were then washed twice with PBS and fixed with 4% PFA in PBS for 10 min. Cells were then washed three times with PBS (5 min between each wash), permeabilized with 0.5% Triton X-100 in PBS for 10 min, and washed twice with PBS. Next, cells were blocked for 1 h with 3% BSA in PBS at room temperature, followed by incubation with primary antibodies diluted in 3% BSA overnight at 4°C. Cells were then washed three times with PBS (5 min between each wash) and incubated with secondary antibodies and Hoechst diluted in 3% BSA at room temperature for 1 h. Cells were then washed three times with PBS (5 min between each wash) and imaged. Primary antibodies were as follows: G3BP1 (Cat# 611127, RRID:AB_398438; BD Biosciences) at 1:200; TDP-43 (Cat# 12892-1-AP, RRID:AB_2200505; Proteintech) at 1:50; eIF3η (Cat# sc-137214, RRID:AB_2277705; Santa Cruz Biotechnology) at 1:100 dilution; PABP (Cat# ab21060, RRID:AB_777008; Abcam) at 1:1,000 dilution; and FXR1 (Cat# ab51970, RRID:AB_880113; Abcam) at 1:100 dilution. Secondary antibodies were as follows: donkey anti-mouse Alexa Fluor 647 (Cat# A-31571, RRID:AB_162542; Thermo Fisher Scientific), donkey anti-rabbit Alexa Fluor 555 (Cat# A-31572 [also A31572], RRID:AB_162543; Thermo Fisher Scientific), and donkey anti-goat Alexa Fluor 555 (Cat# A-21432 [also A21432], RRID:AB_2535853; Thermo Fisher Scientific). Nuclei were stained with Hoechst 33342 (40046; Biotium) at 1:10,000 dilution. All imaging was acquired on a Yokogawa CSU W1 spinning disk attached to a Nikon Ti2 eclipse with a Photometrics Prime 95B camera using Nikon Elements software (versions 5.20.00 to 5.21.02). Imaging was performed through a Nikon Plan Apo 60× 1.40 NA oil objective with Immersol 518 F (refractive index 1.518; Zeiss), and Perfect Focus 2.0 (Nikon) was engaged for all captures.

[2] = tested on: G3BP1- and FUS R495X-positive puncta in U2OS cells with tdTomato-tagged endogenous G3BP1; experiment: Dissolution of puncta induced by FUS R495X expression; assay type: cell-based; settings: for G3BP1 puncta eliminated / reduction in number of puncta positive for FUS R495X: FUS R495X-transfected cells, 50 μM for 30 min; for extraction of FUS R495X from granules: result in words
Method: U2OS cells with knock-in of G3BP1-tdTomato ([Yang et al., 2020]) were seeded into 96-well plates (3904; Corning). Either GFP-VCP-A232E or GFP-FUS-R495X were transfected into cells using ViaFect transfection reagent (Promega) 24 h prior to the start of the experiment. For samples to be treated with compounds G3Ia or G3Ia′, Hoechst (1:5,000; Biotium) was added and incubated for 30 min prior to the start of the experiment, washed once with PBS, and the media was changed to 100 μl FluoroBrite DMEM media (Gibco) upon starting the experiment. Imaging of plates was performed on a Cytation C10 spinning disk confocal (BioTek) with a Hamamatsu Orca-Flash 4.0 camera using Gen5 software (version 3.11). Imaging was performed through an Olympus Plan Apo 40× 0.6 NA dry objective with an adjustable collar set to 0.5 μm thickness. Laser autofocus prior to imaging the tdTomato channel was utilized for each image. The temperature was maintained at 37°C on the instrument and the cells were supplied with 5% CO2. A 7 × 7 tilescan was taken at the center of each well, capturing the tdTomato and GFP channels (and Hoechst when present). After completing the tilescan, 100 μl FluoroBrite with 100 μM (2×) G3I compound (vortexed for 5 s) was added to each well and incubated for 20 min before starting another round of imaging in the same locations as the first round. Samples treated with G3Ib or G3Ib′ were analyzed manually, scoring each cell with spontaneous granules for the presence or absence of granules following treatment with the compound. For experiments in which G3I compounds were pretreated prior to transfection, 50 μM of indicated compound or vehicle control were added to U2OS cells 20 min prior to the addition of the transfection reagent. After 24 h of transfection, the cells were washed with PBS, fixed in 4% formaldehyde, and incubated with Hoechst (1:5,000; Biotium) in PBS for 30 min prior to the start of the experiment, washed once with PBS, and at room temperature imaging on the Cytation C10 spinning disk confocal was performed as described above.
Samples treated with G3Ia or G3Ia′ were analyzed using an automated pipeline. Segmentation was performed in both ilastik and Cellpose 2.0. Nuclear segmentation using the Hoechst channel and granule segmentation in both GFP and tdTomato channels was performed via pixel classification in ilastik using small cropped portions of the tilescan as the training dataset for each. Individual cell segmentation was performed in Cellpose 2.0 by inputting a merged RGB of the Hoechst and G3BP1-tdTomato channels. The Cellpose output was then eroded by one pixel and set as a binary mask in Fiji. The original three raw channels, three output masks from ilastik, and the one mask generated from Cellpose were all inputted into CellProfiler to generate per-cell measurements for granules as defined by GFP or tdTomato.

[3] = tested on: stress granule formation in U2OS cells; experiment: 24 h pretreatment followed by arsenite, immunofluorescence; assay type: cell-based; settings: then 500 μM NaAsO2 for 30 min
[4] = target: T1, full-length 6x-His-tagged human G3BP1 (Homo sapiens, UniProt Q13283); experiment: Peptide displacement assay (Pep-FRET); assay type: binding; settings: for IC50: displacement of FAM-labeled peptide probe, 60 min, room temperature; for displacement of FAM-labeled FGDF peptide from G3BP1: result in words, Fig. 1 C
T1 construct: 10 nM full-length 6x-His-tagged human G3BP1; made in house; host or cells: E. coli BL21 (DE3)
T1 sequence (Q13283 whole entry): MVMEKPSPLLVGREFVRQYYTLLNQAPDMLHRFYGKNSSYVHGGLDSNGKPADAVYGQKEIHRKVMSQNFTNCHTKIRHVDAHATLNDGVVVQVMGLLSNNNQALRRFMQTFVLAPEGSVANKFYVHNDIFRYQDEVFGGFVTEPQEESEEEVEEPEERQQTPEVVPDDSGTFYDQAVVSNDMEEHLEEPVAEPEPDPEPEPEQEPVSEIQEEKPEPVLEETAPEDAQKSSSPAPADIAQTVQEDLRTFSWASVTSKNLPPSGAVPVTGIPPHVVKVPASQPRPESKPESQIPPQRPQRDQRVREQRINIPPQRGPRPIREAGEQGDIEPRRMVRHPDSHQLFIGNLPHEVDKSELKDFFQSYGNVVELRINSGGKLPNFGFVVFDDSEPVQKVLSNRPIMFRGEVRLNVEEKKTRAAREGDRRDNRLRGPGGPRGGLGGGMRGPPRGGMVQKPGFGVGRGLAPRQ
Method: Peptide displacement assays were performed in 20 μl total volume at 25°C at pH 7.4 in buffer containing 20 mM Tris-HCl, pH 7.5, 100 mM NaCl, 0.01% bovine serum albumin, 1 mM DTT, and 0.005% Tween-20. 10 nM full-length 6x-His-tagged human G3BP1 was added to the reaction mix containing the test compound and 0.5 nM anti-His-Tb antibody (PerkinElmer). […] Assay plates were shaken for 30 s, then centrifuged for 30 s, and then incubated at room temperature for 60 min. Data were read on an EnVision Multilabel plate reader at 495/520 nm. HTRF ratios were calculated as described by PerkinElmer and IC50s were calculated using GraphPad Prism 9 software and the [Inhibitor] versus Response—Variable Slope (four parameter) fit equation.

| Compound | stress granule formation by endogenous G3BP signal [1] | G3BP1 puncta eliminated [2] [%] | reduction in number of puncta positive for FUS R495X [2] [%] | extraction of FUS R495X from granules [2] | stress granule formation after 24 h pretreatment ([3]; 5 μM) | stress granule formation after 24 h pretreatment ([3]; 20 μM) | stress granule formation after 24 h pretreatment ([3]; 50 μM) | IC50 [4] [nM] | displacement of FAM-labeled FGDF peptide from G3BP1 [4] | stress granule formation after 24 h pretreatment ([3]; indicated doses) |
| --- | --- | --- | --- | --- | --- | --- | --- | --- | --- | --- |
| COCCC(NC(=O)C(C)NC(=O)C(NC(=O)C(NC(=O)C(F)CC(C)(C)C)C(C)(C)O)C(C)c1ccccc1)C(=O)N(C)Cc1ccccc1 (stereo not shown) [G3Ia] | effectively blocked stress granule formation | 92 | 3 | unable to extract FUS R495X from granules | no substantial impairment | no substantial impairment | inhibited stress granule formation | 1500 | potently displaced | – |
| COCCC(NC(=O)C(C)NC(=O)C(NC(=O)C(NC(=O)C(F)CC(C)(C)C)C(C)(C)O)C(C)c1ccccc1)C(=O)N(C)Cc1ccccc1 (stereo not shown) [G3Ia′] | not | 6 | 4 | – | – | – | – | > 50000 | little effect | no discernable effects |
| CC(NC(=O)C(NC(=O)C(NC(=O)CCC(C)(C)C)C(C)(C)O)C(C)c1ccccc1)C(=O)N1CCCC1c1ccccc1 (stereo not shown) [G3Ib] | effectively blocked stress granule formation | – | – | unable to extract FUS R495X from granules | – | nearly completely inhibited | nearly completely inhibited | 700 | potently displaced | – |
| CC(NC(=O)C(NC(=O)C(NC(=O)CCC(C)(C)C)C(C)(C)O)C(C)c1ccccc1)C(=O)N1CCCC1c1ccccc1 (stereo not shown) [G3Ib′] | not | – | – | – | – | – | – | > 50000 | little effect | no discernable effects |
